The test addresses T1, GLP-1 Receptor (Homo sapiens, UniProt P43220).
T1 construct: host or cells: HEK293/GLP1R/CRE-LUC (HEK293/CRE-Luc stably expressing the GLP-1 receptor)
Description: GLP-1R agonist cAMP stimulation assay (HEK293/GLP1R/CRE-LUC cells, Cisbio cAMP dynamic 2 kit).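 Further: compounds tested in half-log serial dilution, cAMP detected with cAMP-d2 and anti-cAMP cryptate antibody reagents after 1 h at room temperature.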 The class given is cell-based. To be noted: HEK293/CRE-Luc cell line stably expressing the GLP-1 Receptor; 1000 cells/well; 30 min at 37° C.; 0.5 mM IBMX, 0.1% BSA; read-out: GLP1R cAMP Stimulation DR: EC50.
T1 sequence (P43220 24-463, species assumed): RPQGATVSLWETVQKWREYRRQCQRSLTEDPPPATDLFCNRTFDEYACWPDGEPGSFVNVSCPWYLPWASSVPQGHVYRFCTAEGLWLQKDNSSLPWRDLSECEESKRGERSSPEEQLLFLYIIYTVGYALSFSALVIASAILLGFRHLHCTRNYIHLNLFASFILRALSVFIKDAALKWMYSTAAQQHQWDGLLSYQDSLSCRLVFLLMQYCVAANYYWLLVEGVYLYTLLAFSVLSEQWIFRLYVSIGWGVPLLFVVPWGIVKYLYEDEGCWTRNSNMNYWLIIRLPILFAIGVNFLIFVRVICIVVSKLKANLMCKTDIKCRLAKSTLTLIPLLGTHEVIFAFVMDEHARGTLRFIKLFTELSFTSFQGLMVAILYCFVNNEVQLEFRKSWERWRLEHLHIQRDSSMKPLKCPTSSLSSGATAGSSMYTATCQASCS
As a reminder, the EC50 is the concentration needed to bring the measured effect to its halfway point. Turning to `CC1(c2ccc(Cl)cc2F)Oc2cccc(C3CCN(Cc4ncc(-c5nnc(C(F)(F)F)[nH]5)cc4CC4CCCS4(=O)=O)CC3)c2O1` (stereo not shown) [Compound 266, 2-{[2-({4-[2-(4-chloro-2-fluorophenyl)-2-methyl-2H-1,3-benzodioxol-4-yl]piperidin-1-yl}methyl)-5-[5-(trifluoromethyl)-4H-1,2,4-triazol-3-yl]pyridin-3-yl]methyl}-1λ^6-thiolane-1,1-dione], the half-maximal effective concentration (EC50) is 10 nM.
As to `CC1(c2ccc(Cl)cc2F)Oc2cccc(C3CCN(Cc4ncc(-c5nnc(C(F)(F)F)[nH]5)cc4CCS(C)(=O)=O)CC3)c2O1` (stereo not shown) [Compound 267, 2-({4-[2-(4-chloro-2-fluorophenyl)-2-methyl-2H-1,3-benzodioxol-4-yl]piperidin-1-yl}methyl)-3-(2-methanesulfonylethyl)-5-[5-(trifluoromethyl)-4H-1,2,4-triazol-3-yl]pyridine], the concentration giving a half-maximal response (EC50) was 4.7 nM.
Turning to `COCCc1cc(-c2noc(=O)[nH]2)cnc1CN1CCC(c2cccc3c2OC(C)(c2ccc(Cl)cc2F)O3)CC1` (stereo not shown) [Compound 268, 3-[6-({4-[2-(4-chloro-2-fluorophenyl)-2-methyl-2H-1,3-benzodioxol-4-yl]piperidin-1-yl}methyl)-5-(2-methoxyethyl)pyridin-3-yl]-4,5-dihydro-1,2,4-oxadiazol-5-one], the concentration giving a half-maximal response (EC50) was 7.7 nM.
On to `C[C@]1(c2ccc(Cl)cn2)Oc2cccc(C3CCN(Cc4ncc(-c5nnc(C(F)(F)F)[nH]5)cc4CC4(C#N)CC4)CC3)c2O1` [Compound 277, 1-{[2-({4-[(2S)-2-(5-chloropyridin-2-yl)-2-methyl-2H-1,3-benzodioxol-4-yl]piperidin-1-yl}methyl)-5-[5-(trifluoromethyl)-4H-1,2,4-triazol-3-yl]pyridin-3-yl]methyl}cyclopropane-1-carbonitrile], for which the 50% effective concentration (EC50) amounted to 0.023 nM.
Next, `C[C@]1(c2ccc(Cl)cc2F)Oc2cccc(C3CCN(Cc4ncc(-c5nnc(C(F)(F)F)[nH]5)cc4C4CCOC4)CC3)c2O1` (stereo partly drawn) [Compound 282, 2-({4-[(2S)-2-(4-chloro-2-fluorophenyl)-2-methyl-2H-1,3-benzodioxol-4-yl]piperidin-1-yl}methyl)-3-(oxolan-3-yl)-5-[5-(trifluoromethyl)-4H-1,2,4-triazol-3-yl]pyridine]: 3.7 nM; `Cc1cc(-c2nnc(C(F)(F)F)[nH]2)cnc1CN1CCC(c2cccc3c2O[C@@](C)(c2ccc(C#N)cc2F)O3)CC1` [Compound 286, 3-fluoro-4-[(2S)-2-methyl-4-[1-({3-methyl-5-[5-(trifluoromethyl)-4H-1,2,4-triazol-3-yl]pyridin-2-yl}methyl)piperidin-4-yl]-2H-1,3-benzodioxol-2-yl]benzonitrile]: 1.38 nM.
Next, `CCOCCc1cc(-c2nnc(C(F)(F)F)[nH]2)cnc1CN1CCC(c2cccc3c2O[C@@](C)(c2ccc(Cl)cc2F)O3)CC1` [Compound 287, 2-({4-[(2S)-2-(4-chloro-2-fluorophenyl)-2-methyl-2H-1,3-benzodioxol-4-yl]piperidin-1-yl}methyl)-3-(2-ethoxyethyl)-5-[5-(trifluoromethyl)-4H-1,2,4-triazol-3-yl]pyridine]: 0.87 nM.

The values above are taken from patent publication US11897851B2, “Heterocyclic GLP-1 agonists” (Gasherbrum Bio, Inc., priority 2021, dated 2024).
